Laboratory results as given in patent US20260355144A1, “METAP2 INHIBITORS FOR THE TREATMENT OF PULMONARY FIBROSIS” (SynDevRx , Inc., priority 2022, published 2026).

Tests used:
Format in all cases: in vivo, C57BL/6 mice
[1] = system: aged, male, bleomycin-treated mice; assay: Wet lung weight (edema), Example 1; conditions: FIG. 6, day 21, compared to BLM-treated mice; SDX-7320 8 mg/kg SC Q4D; nintedanib 50 mg/kg PO QD; pirfenidone 100 mg/kg PO BID
Method: (§1) Treatment: seven groups of mice were treated as put forth in Table A. Mice in groups 2-7 were challenged with bleomycin solution on Day 0 of the study by a single oropharyngeal installation of bleomycin solution such that the mice were given 1.5 U/kg based on the average body weight of the animals. On day 6 of the study, all mice were randomized based on body weight loss plus their PenH value (see below) as measured on Day 6.
(§2) Mice in treatment groups 1 and 2 were administered a vehicle control subcutaneously once every 4 days (Q4D) from day 7 to day 21. Mice in treatment group 3 were administered SDX-7320 subcutaneously Q4D from day 7 to day 21 at a dose of 8 mg/kg (i.e., 4 doses). Mice in treatment group 4 were administered pirfenidone orally (PO) twice a day (BID) from day 7 to day 21 at a dose of 100 mg/kg. Mice in treatment group 5 were administered nintedanib orally (PO) once a day (QD) from day 7 to day 21 at a dose of 50 mg/kg. […]
Lung weight: Lungs were harvested, and the wet lung weights (signifying edema) were recorded.
Statistical Analysis: All parameters were analyzed in the same manner and results were expressed as means±SEM with Graph Pad Prism Software version 8.0 (San Diego, CA, USA). […]

[2] = system: aged, male, bleomycin-treated mice; assay: Respiratory function by whole-body plethysmography (PenH, respiratory rate), Example 1; conditions: FIG. 3, day 20 post BLM; SDX-7320 8 mg/kg SC Q4D; nintedanib 50 mg/kg PO QD; pirfenidone 100 mg/kg PO BID
Method: Animals: Aged, male C57BL/6 mice from Jackson Laboratories, 72 weeks old at the time of randomization were used in this study.
Mice in treatment groups 1 and 2 were administered a vehicle control subcutaneously once every 4 days (Q4D) from day 7 to day 21. […]
Respiratory Function: Respiratory function of the mice were measured using plethysmography. […] After the acclimatization period, the baseline functional respiratory parameters were measured by the whole-body plethysmograph (VivoFlow by SCIREQ) on Day 6 (before treatment introduction and process to the randomization), Days 13 and 20, post-BLM administration. […] The functional respiratory parameters analyzed include respiratory rate and PenH (pulmonary congestion index). […]

[3] = system: aged, male, bleomycin-treated mice; assay: Automated histopathological analysis of lung samples, Example 1
Method: as §1
as §2, with “mg/kg.” for “mg/kg. Mice in treatment group 5 were administered nintedanib orally (PO) once a day (QD) from day 7 to day 21 at a dose of 50 mg/kg.”
Histopathological Analysis: Automatic quantification of morphological features of pulmonary fibrosis were performed using MorphoQuant™ (Biocellvia, France), an automated AI-based digital pathology software for quantification, from the digitalized images (scans) of PSR-stained or antibody labeled lung sections. MorphoQuant™ uses principles of morphometric analysis to detect and quantify specific lung disease features from histological slides (Gilhodes et al. 2017; Michaudel, Fauconnier, et al. 2018). […]

| Compound | lung weight (wet) [1] | pulmonary congestion (PenH) [2] | deposition of collagen in lung tissue ([3]; FIG. 22 and Table C, COL1A1, following exposure to bleomycin, SDX-7320 8 mg/kg SC Q4D, nintedanib 50 mg/kg PO QD) | COL1A1 area (%) ([3]; Table C/FIG. 22, aged male mice, bleomycin 1.5 U/kg oropharyngeal, treatment day 7 to 21, SDX 8 mg/kg SC Q4D, Nin 50 mg/kg PO QD, ab270993 antibody labeled) |
| --- | --- | --- | --- | --- |
| COC(=O)c1ccc2c(c1)NC(=O)/C2=C(\Nc1ccc(N(C)C(=O)CN2CCN(C)CC2)cc1)c1ccccc1 [nintedanib, Methyl (Z)-3-[[[4-[N-methyl-2-(4-methylpiperazin-1-yl)acetamido]phenyl]amino](phenyl)methylene]-2-oxoindoline-6-carboxylate] | did not significantly reduce lung weight | increased the pulmonary congestion | almost no activity | 1.387 ± 1.638 |
| Cc1ccc(=O)n(-c2ccccc2)c1 [pirfenidone, 5-Methyl-1-phenyl-1H-pyridin-2-one] | did not significantly reduce lung weight |  |  |  |
